Measured values: patent US20250009861A1, “ANTI-CANCER VACCINE COMPOSITION COMPRISING PEPTIDES DERIVED FROM TUMOR-ASSOCIATED ANTIGEN, AND ADJUVANT CONSISTING OF LIPOPEPTIDE AND IMMUNOACTIVE SUBSTANCE, AND USE THEREOF” (CHA VACCINE RESEARCH INSTITUTE CO., LTD, priority 2021, published 2025)

Test system: peripheral blood mononuclear cells (PBMCs)
Assay: IFN-γ ELISPOT immunogenicity assay in PBMCs
Format: cell-based, human
Settings: single peptides, PBMCs of healthy people, compared to control untreated with peptides; FIG. 1
Method: To confirm the immunogenicity of the 13 peptides selected in Example 1, interferon gamma (IFNg)-enzyme linked immuno-SPOT assay (ELISPOT) was performed.
This experiment is a sensitive immunoassay that can detect cytokines secreted by a single cell. By attaching the cytokines secreted when cells are activated to a capture antibody, the secreted cytokines can be measured without being affected by proteins expressed on the cell surface or proteolytic enzymes. After attaching the cytokine to the capture antibody, the cells are removed, a detecting antibody conjugated to an enzyme that can recognize the attached capture antibody is added, and a chromogenic substrate for the enzyme is added, forming a chromogenic spot at the location of the cell secreting the cytokine, and the number of spots can be used to determine the number of cells that have responded to the stimulating antigen.
The peripheral blood mononuclear cells (PBMCs) required for the experiment were isolated from human venous blood as follows. The venous blood was diluted with 1×PBS, placed in SepMate-50 tubes, and centrifuged at 800 g for 20 minutes at room temperature. After centrifugation, the plasma and the separated PBMCs were washed, placed in each well of a 6 well tissue culture plate at a concentration of 1×10^6 cells/mL, and cultured overnight in an incubator (37° C., 5% CO2). The next day, the PBMC culture solution was recovered and centrifuged at 2000 rpm for 15 minutes at room temperature. After centrifugation, PBMCs were seeded in a 6 well cell culture plate, and peptides were added thereto and cultured to stimulate the cells.
At this time, the 13 peptides selected in Example 1 were treated alone or with various peptide combinations, and an untreated group and a ConA group were also prepared for comparative analysis. […] After attaching ELI-FOIL to the dried ELISPOT plate and stamping the membrane, the number of spots in each well was read using an ELISPOT reader. […]

| Sequence | immunogenicity (IFN-γ ELISPOT spots) |
| --- | --- |
| TQHFVQENYLEY [CHA-10, Mage-A3 (246-260) derived peptide, HLA class II, DRB1; excluded] | lowest immunogenicity |
| FLWGPRALV [CHA-11] | lowest immunogenicity |
| LMLGEFLKL [CHA-6, Survivin (97-104) derived peptide, HLA class I, A02; excluded] | lowest immunogenicity |
